The text below walks through data of patent US10765116B2, “2-[3-(alkylsulfonyl)-2H-indazol-2-yl]-3H-imidazo[4,5-B]pyridine derivatives and similar compounds as pesticides” (BAYER CROPSCIENCE AKTIENGESELLSCHAFT, priority 2016, dated 2020).

Holding throughout (type): in vivo
One experiment relates to Lucilia cuprina. The experiment is described as follows: Lucilia cuprina test. As to conditions: application rate 100 ppm, L1 larvae, minced horsemeat, after 2 days. How it is done:
Solvent: dimethyl sulfoxide To produce a suitable active ingredient formulation, 10 mg of active ingredient are mixed with 0.5 ml of dimethyl sulfoxide, and the concentrate is diluted with water to the desired concentration. About 20 L1 larvae of the Australian sheep blowfly (Lucilia cuprina) are transferred into a test vessel containing minced horsemeat and the active ingredient formulation of the desired concentration. After 2 days, the kill in % is determined. 100% means that all the larvae have been killed; 0% means that no larvae have been killed.

A further experiment concerns Phaedon cochleariae. As to the kind of experiment: Phaedon cochleariae spray test. The following applies: application rate 100 g/ha, Chinese cabbage leaf discs, larvae, after 7 days. How it is done: (§1) Solvent: 78.0 parts by weight of acetone • • 1.5 parts by weight of dimethylformamide Emulsifier: alkylaryl polyglycol ether To produce a suitable active ingredient formulation, 1 part by weight of active ingredient is dissolved with the specified parts by weight of solvent and made up to the desired concentration with water containing an emulsifier concentration of 1000 ppm. To produce further test concentrations, the formulation is diluted with emulsifier-containing water. Discs of Chinese cabbage leaves (Brassica pekinensis) are sprayed with an active ingredient formulation of the desired concentration and, after drying, populated with larvae of the mustard beetle (Phaedon cochleariae). After 7 days, the efficacy in % is determined. 100% means that all the beetle larvae have been killed; 0% means that no beetle larvae have been killed.

The next experiment deals with Spodoptera frugiperda. The experiment is described as follows: Spodoptera frugiperda spray test. As to conditions: application rate 100 g/ha, maize leaf discs, caterpillars, after 7 days. As to the method: as §1, with “water. Leaf discs” for “water. Discs”, “of maize (Zea mays)” for “of Chinese cabbage leaves (Brassica pekinensis)”, “with caterpillars” for “with larvae”, “the armyworm (Spodoptera frugiperda).” for “the mustard beetle (Phaedon cochleariae).”, “the caterpillars” for “the beetle larvae”, “no caterpillar has” for “no beetle larvae have”

Experiment [1] has as its system Ctenocephalides felis. As to the kind of experiment: Ctenocephalides felis in vitro contact test with adult cat fleas. The following applies: application rate 5 μg/cm^2 (=500 g/ha), coated glass tube, after 48 h. As to the method:
For the coating of the test tubes, 9 mg of active ingredient are first dissolved in 1 ml of acetone p.a. and then diluted to the desired concentration with acetone p.a. 250 μl of the solution are distributed homogeneously on the inner walls and the base of a 25 ml glass tube by turning and rocking on an orbital shaker (rocking rotation at 30 rpm for 2 h). With 900 ppm of active ingredient solution and internal surface area 44.7 cm^2, given homogeneous distribution, an area-based dose of 5 μg/cm^2 is achieved. After the solvent has evaporated off, the glass tubes are populated with 5-10 adult cat fleas (Ctenocephalides felis), sealed with a perforated plastic lid and incubated in a horizontal position at room temperature and ambient humidity. After 48 h, efficacy is determined. To this end, the tubes are stood upright and the fleas are knocked to the base of the tube. Fleas which remain motionless at the base or move in an uncoordinated manner are considered to be dead or moribund. […] 100% efficacy means that all the fleas were dead or moribund. 0% efficacy means that no fleas were harmed.

For experiment [2], the system named is Myzus persicae. The experiment is described as follows: Myzus persicae oral test. The following applies: 120 h, mixed population of green peach aphids, after 5 days, read-out: efficacy; for pest or weed control at 4 ppm: application rate 4 ppm; for pest or weed control at 20 ppm: application rate 20 ppm. As to the method:
Solvent: 100 parts by weight of acetone To produce a suitable active ingredient formulation, 1 part by weight of active ingredient is dissolved with the stated parts by weight of solvent and made up to the desired concentration with water. 50 μl of the active ingredient formulation are transferred into microtitre plates and made up to a final volume of 200 μl with 150 μl of IPL41 insect medium (33%+15% sugar). Subsequently, the plates are sealed with parafilm, which a mixed population of green peach aphids (Myzus persicae) within a second microtitre plate is able to puncture and imbibe the solution through it. After 5 days, the efficacy in % is determined. 100% means that all the aphids have been killed; 0% means that no aphids have been killed.

Experiment [3] has as its system Myzus persicae. As to the kind of experiment: Myzus persicae spray test. As to conditions: application rate 100 g/ha, Chinese cabbage leaf discs, all stages, after 5 days. As to the method:
as §1, with “78” for “78.0”, “pekinensis) infested by all stages of the green peach aphid (Myzus persicae)” for “pekinensis)”, “concentration.” for “concentration and, after drying, populated with larvae of the mustard beetle (Phaedon cochleariae).”, “5” for “7”, “aphids” for “beetle larvae”

The subject of experiment [4] is Ctenocephalides felis. As to the kind of experiment: Ctenocephalides felis oral test. As to conditions: application rate 100 ppm in citrated cattle blood, adult cat fleas, after 2 days. As to the method:
Solvent: dimethyl sulfoxide To produce a suitable active ingredient formulation, 10 mg of active ingredient are mixed with 0.5 ml of dimethyl sulfoxide. Dilution with citrated cattle blood gives the desired concentration. About 20 unfed adult cat fleas (Ctenocephalides felis) are placed into a chamber which is closed at the top and bottom with gauze. A metal cylinder whose bottom end is closed with parafilm is placed onto the chamber. The cylinder contains the blood/active ingredient formulation, which can be imbibed by the fleas through the parafilm membrane. After 2 days, the kill in % is determined. 100% means that all of the fleas have been killed; 0% means that none of the fleas have been killed.

A further experiment concerns Rhipicephalus sanguineus. As to the kind of experiment: Rhipicephalus sanguineus in vitro contact test with adult brown dog ticks. The following applies: application rate 5 μg/cm^2 (=500 g/ha), coated glass tube, after 48 h. How it is done:
For the coating of the test tubes, 9 mg of active ingredient are first dissolved in 1 ml of acetone p.a. and then diluted to the desired concentration with acetone p.a. 250 μl of the solution are distributed homogeneously on the inner walls and the base of a 25 ml glass tube by turning and rocking on an orbital shaker (rocking rotation at 30 rpm for 2 h). With 900 ppm of active ingredient solution and internal surface area 44.7 cm^2, given homogeneous distribution, an area-based dose of 5 μg/cm^2 is achieved. After the solvent has evaporated off, the tubes are populated with 5-10 adult dog ticks (Rhipicephalus sanguineus), sealed with a perforated plastic lid and incubated in a horizontal position in the dark at room temperature and ambient humidity. After 48 h, efficacy is determined. To this end, the ticks are knocked to the base of the tube and incubated on a hotplate at 45-50° C. for not more than 5 min. Ticks which remain motionless on the base or move in such an uncoordinated manner that they are unable to deliberately avoid the heat by climbing upwards are considered to be dead or moribund. […] An efficacy of 100% means that all the ticks were dead or moribund. 0% efficacy means that none of the ticks were harmed.

A further experiment deals with Musca domestica. As to the kind of experiment: Musca domestica test. The following applies: application rate 100 ppm, adult houseflies, after 2 days. As to the method:
Solvent: dimethyl sulfoxide
To produce a suitable active ingredient formulation, 10 mg of active ingredient are mixed with 0.5 ml of dimethyl sulfoxide, and the concentrate is diluted with water to the desired concentration.
Vessels containing a sponge treated with sugar solution and the active ingredient formulation of the desired concentration are populated with 10 adult houseflies (Musca domestica).
After 2 days, the kill in % is determined. 100% means that all of the flies have been killed; 0% means that none of the flies have been killed.

SMILES strings stand for the structures.

Take `CCS(=O)(=O)c1c2cc(C(F)(F)F)ccc2nn1-c1nc2cc(C(F)(F)F)cnc2n1C` [Example I-5]: the “efficacy (kill)” value in the experiment on Lucilia cuprina is 100%. For the same compound, the efficacy in the experiment on Phaedon cochleariae, in the experiment with Spodoptera frugiperda and in the experiment with Ctenocephalides felis [1] was 100% each time. In the experiment with Myzus persicae [2], the pest or weed control at 4 ppm was 100%.
Turning to `CCS(=O)(=O)c1c2ccc(Cl)cc2nn1-c1nc2cc(C(F)(F)F)cnc2n1C` [Example I-1, 2-[6-Chloro-3-(ethylsulfonyl)-2H-indazol-2-yl]-3-methyl-6-(trifluoromethyl)-3H-imidazo[4,5-b]pyridine], the “efficacy (kill)” value with Lucilia cuprina is given as 100%. The efficacy in the experiment on Phaedon cochleariae and with Spodoptera frugiperda was 100% in each case. In addition, the pest or weed control at 4 ppm in the experiment on Myzus persicae [2] is 90%.
As for `CCS(=O)(=O)c1c2ccccc2nn1-c1nc2cc(C(F)(F)F)cnc2n1C` [Example I-3], the “efficacy (kill)” value in the experiment on Lucilia cuprina is 100%. For the same compound, the efficacy in the experiment with Phaedon cochleariae and in the experiment on Myzus persicae [3] was 100% throughout. In addition, the pest or weed control at 4 ppm in the experiment on Myzus persicae [2] was determined as 90%.
`CCS(=O)(=O)c1c2cc(Cl)ccc2nn1-c1nc2cc(C(F)(F)F)cnc2n1C` [Example I-2, 2-[5-Chloro-3-(ethylsulfonyl)-2H-indazol-2-yl]-3-methyl-6-(trifluoromethyl)-3H-imidazo[4,5-b]pyridine]: the entries for the “efficacy (kill)” value in the experiment on Lucilia cuprina and in the experiment on Ctenocephalides felis [4] were 100% and 80%, respectively. The efficacy in the experiment on Phaedon cochleariae, in the experiment on Spodoptera frugiperda and in the experiment on Ctenocephalides felis [1] was 100% throughout. The pest or weed control at 4 ppm with Myzus persicae [2] turned out to be 100%. Besides, in the experiment on Myzus persicae [2], the pest or weed control at 20 ppm came to 100%.
With `CCS(=O)(=O)c1c2c(nn1-c1nc3cc(C(F)(F)F)cnc3n1C)CCCC2` [Example I-10, 2-[3-(Ethylsulfonyl)-4,5,6,7-tetrahydro-2H-indazol-2-yl]-3-methyl-6-(trifluoromethyl)-3H-imidazo[4,5-b]pyridine], the “efficacy (kill)” value in the experiment with Lucilia cuprina was found to be 100%. For the same compound, the values for the efficacy in the experiment on Myzus persicae [3], with Ctenocephalides felis [1] and in the experiment on Rhipicephalus sanguineus were 90%, 100% and 100%, respectively. In addition, in the experiment with Myzus persicae [2], the pest or weed control at 4 ppm was 100%.
`CCS(=O)(=O)c1c2c(nn1-c1nc3cc(C(F)(F)F)cnc3n1C)CC(C)(C)CC2` [Example I-11] had an efficacy in the experiment on Myzus persicae [3] of 90%. For the same compound, the pest or weed control at 4 ppm in the experiment with Myzus persicae [2] is 100%.
In turn, `CCS(=O)(=O)c1c2cccc(Cl)c2nn1-c1nc2cc(C(F)(F)F)cnc2n1C` [Example I-4] displayed an efficacy in the experiment on Phaedon cochleariae of 100%. Moreover, the pest or weed control at 4 ppm with Myzus persicae [2] came to 90%.
Take `CCS(=O)(=O)c1c2ccc(C(F)(F)F)cc2nn1-c1nc2cc(C(F)(F)F)cnc2n1C` [Example I-6]: the “efficacy (kill)” value with Lucilia cuprina is reported as 100%; with Musca domestica, 90%. The efficacy with Phaedon cochleariae, in the experiment with Spodoptera frugiperda and in the experiment on Ctenocephalides felis [1] was 100% throughout. In addition, the pest or weed control at 4 ppm in the experiment on Myzus persicae [2] was 100%. Also, the pest or weed control at 20 ppm with Myzus persicae [2] is 100%.
Turning to `CCS(=O)(=O)c1c2ccc(C(F)(F)F)cc2nn1-c1nc2cc(C(F)(F)F)ncc2n1C` [Example I-12], the efficacy in the experiment on Phaedon cochleariae and in the experiment on Spodoptera frugiperda was 100% throughout. Further, in the experiment on Myzus persicae [2], the pest or weed control at 4 ppm was determined as 100%.
